# Reference: patent US5312928A, “Calcium channel antagonists and methodology for their identification” (priority 1991, dated 1994)
# pIC50: −log10 of the molar value. Entries after “also recorded” stand apart in the source; their conditions may differ.
# Key:
# [1] = system: stroke; conditions: cited from earlier work
# [2] = system: L-type channels; conditions: characteristic of dihydropyridines, background; read-out: IC50 for L-channel block; cited from earlier work
# [3] = system: L-type calcium channels (GH4 C1 cells); assay: Microscreen assay: K+-stimulated 45Ca uptake by GH4C1 clonal pituitary cells; assay type: cell-based, rat
# Method: Frozen crude venom (40 μl) was thawed on ice and mixed with 210 μl of ice-cold 0.1% trifluoroacetic acid (TFA) in H2 O. The solution was centrifuged at room temperature for 5 min. at 13,000 rpm with an Eppendorf Centrifuge, and 240 μl of the supernatant was applied to a reversed-phase C18 HPLC column (100×250 mm, 5 μm bead size, 100 Å pore size, prepacked NGA column from The NEST Group). HPLC was performed using an acetonitrile gradient of 0 to 30% in 0.1% TFA in 105 min. at a flow rate of 4.0 ml/min. The elution was monitored by absorbance at 214 nm and 254 nm, and the fractions were collected manually according to the elution profile. Samples representing 5% of each fraction (corresponding to 2 μl crude venom per sample) were dried by Speed Vac (Savant), suspended in a buffer, and tested for their ability to block ^45 Ca^+ 2 influx into rat GH4C1 cells (see "Microscreen Assay for L-Type Calcium Channel Blockers" below).
# Microscreen Assay for L-Type Calcium Channel Blockers
# The rat GH4 C1 pituitary cells, a widely available cell line obtained from Dr. Armen Tashjian, Harvard Medical School, was used to measure effect of DOC preparations on calcium influx into cells.
# Cell stocks were kept frozen in liquid nitrogen until needed. One ampule was thawed and then seeded onto a T-75 culture flask and grown to confluency. Thereafter, the cells were treated with a 1% trypsin solution in Hanks and replated onto T-25 culture flasks at different dilutions. Stocks were then kept growing and split as needed rather than refrozen. The medium used was Ham's F-10 supplied by Media-Tech containing 10% heat-inactivated fetal calf serum purchased from Hyclone. In general, the best response was obtained from 3-5 day post-confluent cells.
# Cell suspension from one T-25 flask was prepared as follows for experiments. The flask was gently washed 2× with Hanks. 10 ml of warm 0.02% EDTA-Hanks was added to the flask and allowed to stand for approximately 30 seconds. The plate was sloshed, inverted and banged on a hard surface to dislodge the cells. 0.6 ml CMT-Hanks was immediately added and sloshed. The cells were then transferred to a 15 ml centrifuge tube and spun for 20-30 seconds at 50 g (700 RPM).
# With a pipette, the supernatant was gently aspirated and resuspended by triturating the pellet in 0.4 ml HBBS. The cells were then transferred to a 4 ml flat bottom glass vial with a magnetic flea and stirred at the slowest speed.
# Thereafter, low K^+ or high K^+ 4.2 μl ^45 Ca stock [eq. to 2 uCi/4.2 μl cells] was added to the tube and incubation was continued for 1 min. 790 μl HBBS was added to quench calcium uptake by the cells. The mixture was then pipetted up and down 2× before it was subjected to filtration in an Amicon filter manifold with a Whatman glass fiber filter. The filter was rinsed 5× with 5 ml HBBS buffer each. It is important that the buffer be squirted at the side of the chimney, straight down and not directly at the filter, since this may wash cells back up off the filter and onto the chimney. It is also important not to cause a whirlpool effect with the wash and create uneven rinsing of the filter.
# A separate chimney for each well was used and each chimney was washed after use.
# About 1 min. after the rinse, the chimney was removed to relieve the filter of suction to minimize loss of counts due to cell disruption. A set of four blanks (i.e., measurements using the same solutions but without cells) was run at the end of the assay to determine the background counts.
# [4] = system: K currents, N1E-115 cells; assay type: cell-based, murine; conditions: @ 1 U/ml
# [5] = system: DHP-resistant R-channels (N1E-115 cells); assay type: cell-based, murine
# [6] = system: T-type calcium channels (N1E-115 cells); assay type: cell-based, murine
# [7] = system: Na current, N1E-115 cells; assay type: cell-based, murine
# [8] = system: L-channels? (cortical neurons); assay: Block of K-stimulated 45Ca uptake, cortical neurons; assay type: cell-based
# Text: Summarized in the Table below are results of experiments designed to study the effect of DOC1 on calcium channels by calcium 45 uptake measurement and electrophysiological method, both of which are described above.
# [9] = system: synaptosomal calcium channels; assay: Microscreen assay: K+-stimulated 45Ca uptake by synaptosomes; assay type: biochemical, rat
# Method: The screening method used to test calcium blocking activity in GH4 C1 cells of venom preparations, as described above, was modified as follows for determining the effect of DOC1 on synaptosomal calcium uptake.
# After the buffers were made, the osmolarity of the quench buffer was adjusted by dilution with ddH2 O to approximately equal to the average of the osmolarities of the other 3 buffers. All the buffers were made up in ddH^2 O only.
# For basal uptake: 5 μl NEN stock+995 μl low K+Ca buffer.
# For depolarized (i.e., high K^+) uptake: 5 μl NEN+995 μl high K+Ca buffer.
# The synaptosome preparation described below was an adoption of a published procedure. [Hajos F., Brain Res. 93:485-489 (1975)].
# Basal buffer used was of the following composition: Basal buffer, pH 7.4, was of following composition: NaCl 147 mM, KCl 3 mM, HEPES 10 mM, Dextrose 10 mM, MgCl2 1.2 mM, and EGTA-Tris 1 mM. The high-K^+ buffer was the same as the basal buffer except that concentrations of NaCl and KCl were 95 mM and 55 mM, respectively.
# Synaptosomes were prepared from CD male rats of 4 to 6 weeks (50-75 g). Rats were killed by decapitation with guillotine, and the skull bone was opened in the center with the pointed blade of dissection scissors. The bone was then peeled away with a bone cutter and the brain pried with a micro spatula. […]
# [10] = system: dihydropyridine binding sites on the L-type calcium channels; conditions: up to 0.6 units/ml; rat brain membranes
# Text: Other compounds which act through the same binding site as the dihydropyridines will inhibit this [^3 H]nimodipine binding.
# [11] = system: L-type calcium channels (GH4 C1 cells); assay: Whole-cell voltage-clamp electrophysiology, GH4 C1 cells; assay type: cell-based, rat
smiles,measurement,setting,value
COCCOC(=O)C1=C(C)NC(C)=C(C(=O)OC(C)C)C1c1cccc([N+](=O)[O-])c1 (stereo not shown) [nimodipine],cardiovascular side effects,[1]; background statement,significant cardiovascular side effects
same,improvement in the outcome of stroke in clinical trials,"[1]; clinical trials, Gelmers et al. 1988",Modest improvement in the outcome of stroke
same,pIC50,[2],> 6.00
NCCCNCCCNCCCNCCCCCNC(=O)Cc1c[nH]c2cccc(O)c12 [DOC1],relative potency DOC1 vs DOC3 in blocking calcium uptake,"[3]; FIG. 6, DOC1 compared with DOC3",several-fold more potent than DOC3
same,activity in the 45Ca2+ influx assay / block of potassium-stimulated calcium uptake (in words),[3]; GH4 C1 clonal pituitary cells,blocked potassium-stimulated calcium uptake; also recorded: active; also recorded: possess calcium blocking activity
same,"Block of DHP-sensitive L-type channels, GH4 C1 clonal pituitary cells, 45Ca uptake, IC50","[3]; consistent inhibitory effects, IC50 varied among GH4 C1 cultures",0.4-1.5 units/ml
same,"Block of K currents, N1E-115 cells",[4],12%
same,"Block of DHP-resistant R-channels, N1E-115 cells (electrophys), IC50",[5],0.4 units/ml
same,concentration yielding half-maximal inhibition of high-threshold current remaining after nimodipine,"[5]; 10 μM nimodipine, maximum block 45%, FIG. 12",0.37 U/ml
same,inhibition of high-threshold current in continuous presence of nimodipine (in words),"[5]; 1.0 U/ml DOC1, 10 μM nimodipine, FIG. 11A, 11B",inhibition of the high-threshold current; also recorded: blocks high-threshold current
same,reversibility and dose-dependence of the actions,[5]; upon washout,reversible upon washout and were dose-dependent
same,effect on T-type current (in words),"[6]; evoked by weak depolarizations from negative holding potentials, FIG. 11C",did not substantially affect the T-type current; also recorded: no block of putative T-type channels was observed; also recorded: little effect on T-type current
same,"Block of low threshold, inactivating (T?) channels, N1E-115 cells (electrophysiol), IC50",[6]; words in the IC50 column,none
same,specificity for Ca channels over Na or K channels (in words),"[7]; Na or K channels, N1E-115 cells",striking specificity
same,selectivity for Ca versus Na currents,[7]; on the order of,two
same,"Block of Na current, N1E-115 cells, IC50",[7]; words in the IC50 column,not signif.
same,"Block of K-stimulated 45Ca uptake (L-channels?), cortical neurons, IC50",[8]; IC50 varied among sensitive cultures,0.1-0.4 units/ml
same,sensitivity of cortical neuron cultures (in words),[8]; some cultures of cortical neurons,insensitive
same,inhibition of K+-stimulated calcium uptake by synaptosomes,"[9]; concentrations up to 0.5 units/ml, not more than about 30%",≤ 30%
same,block of synaptosomal calcium channels (in words),[9]; in comparison with block of L-type channels in GH4 C1 cells,substantially less effective and potent
same,inhibition of [3H]nimodipine binding (in words),[10],no significant inhibition; also recorded: no inhibition of nimodipine binding
same,"block of current through calcium channels, GH4 C1 cells","[11]; 0.4-1.0 U/ml, depolarizations to between -10 and +20 mV",up to 80%
same,"reversibility of block of calcium channel current, GH4 C1 cells",[11]; FIG. 10,reversibly blocked; also recorded: capable of reversibly blocking electrical current
same,"Block of DHP-sensitive L-type channels, GH4 C1 clonal pituitary cells, electrophysiol, IC50",[11]; puff application,1.5 units/ml
COC(=O)C1=C(C)NC(C)=C(C(=O)OC)C1c1ccccc1[N+](=O)[O-] [nifedipine],pIC50,[2],> 6.00
